The nature of this data set: gradient 5% acetonitrile 3 min, to 50% in 2 min, to 85% in 15 min, held 3 min, 100 µL/min. To be noted: column: Zorbax Extend-C18 2.1 x 50 mm; eluents: water / acetonitrile, 0.1% formic acid. Put shortly:
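Retention time was recorded from adduct peaks, which were picked computationally and each inspected manually. Pure standards ran in mixtures of ~100 molecules on HPLC coupled to a quadrupole time-of-flight mass spectrometer, in positive and negative ionization mode, through a Zorbax Extend-C18 column (2.1 × 50 mm, 1.8 μm) at 100 μL/min. Eluents were water and acetonitrile, each with 0.1% formic acid.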
`CCn1cc(C)c(C(=O)O)c1CC(=O)NC1CCCCCC1`: the RP-LC retention time was found to be 814 s. `O=C(CSCc1ccccc1)N1CCC(Cn2cccn2)CC1`: the RP-LC retention time was found to be 721 s. Consider `COc1ccc(N2C(=O)C3N=NN(Cc4nc(-c5cccc(C)c5)no4)C3C2=O)cc1` (centres undefined), for which the RP-LC retention time was 993 s. The compound `Cn1nnnc1SCC(=O)NCCn1nc(-c2cccs2)ccc1=O` registered an RP-LC retention time of 611 s. As for `CCN(CC)S(=O)(=O)c1ccc2c(c1)CC(C(=O)N1CCCCC1)N2C(C)=O` (centres undefined), the RP-LC retention time is 804 s. For `COc1ccc(NC(=O)c2cn(CC3CCCO3)cc3c(=O)n(-c4ccccc4)nc2-3)cc1` (centres undefined) the value was 937 s. For `O=C(Nc1ccc2c(c1)OCCO2)C1CCCN(c2nccnc2Sc2ccccc2)C1` (centres undefined) the value was 1030 s; for `CCOc1ccc(CC(=O)N2CCC3(CC2)C(=O)N(C)c2ccccc23)cc1OCC`, 830 s. In turn, `CCc1ccc(CNC(=O)CC2CCN(C(=O)c3[nH]c(C)c(C)c3C)CC2)cc1` returned an RP-LC retention time of 898 s. For `CCn1c(=O)c(N2CCC(NC(=O)NCCCOC)CC2)nc2ccccc21` the value was 707 s. For `COCc1ncc(C)n1CC1CN(C(=O)c2ocnc2C)C1` the value was 511 s. For `Fc1cccc(-c2cc(CN3CCN(c4ncccn4)CC3)[nH]n2)c1` the value was 618 s; for `COCc1nc(CCNC(=O)NC2CCCCC2)no1`, 691 s. For the compound `O=C(NC1(c2nc(-c3ccccc3)no2)CCCCC1)c1ccccc1F`, the RP-LC retention time is 1100 s. For `COc1ccc(C(=O)N2CCC3(CC2)N=C(c2ccc(Cl)cc2)NO3)cc1F` the value was 819 s; for `CC(C)NC(=O)c1c2c(nc3ccccc13)CCC2`, 593 s; for `CC(=O)NCc1csc(C2CCCN(C(=O)c3cc(F)cc(F)c3)C2)n1` (centres undefined), 684 s.

Turning to `Cc1nn(-c2nc(CC(=O)Nc3nc(-c4ccccc4)cs3)cs2)c(C)c1Cc1ccccc1`, the RP-LC retention time stood at 1380 s. With `CSc1ccc(-c2nc3cnccn3c2Nc2ccc3c(c2)OCCO3)cc1`, the RP-LC retention time was 863 s. Turning to `CCc1ccc(NC(=O)C2CC(=O)N(CCc3c[nH]c4ccc(OC)cc34)C2)cc1` (centres undefined), the RP-LC retention time was 831 s.

Compound `Cc1cc(S(=O)(=O)N2CCC(N(C(=O)C3CC3)C3CCOCC3)CC2)ccc1Cl` gave an RP-LC retention time of 977 s. For `O=C(C1=NN(Cc2ccccc2F)c2ccc(Cl)cc2S1(=O)=O)N1CCOCC1` the value was 875 s. For `Cc1nc(Nc2ccc(F)cn2)sc1C(=O)NC(C)c1ccc(F)cc1` (centres undefined) the value was 887 s. With `OC(c1ccncc1)c1cccc(Cl)c1F` (centres undefined), the RP-LC retention time stood at 586 s. Take `Cc1ccc(NS(=O)(=O)c2cc(-c3[nH]ncc3C(=O)N3CCCCC3)oc2C)cc1C`: the RP-LC retention time came to 821 s. For `O=C(Nc1cnn(-c2ncc(N3CCCC3)cn2)c1)c1cccc(C(F)(F)F)c1` the value was 917 s. As to `Cc1nn(CCCC(=O)NCCN2CCCC2)c(=O)c2c(-n3cccc3)n(-c3ccccc3)nc12`, the RP-LC retention time turned out to be 666 s. `COc1ccc(CNC(=O)N2CCC(c3cc(N)on3)CC2)cc1` returned an RP-LC retention time of 642 s. For `Cn1c(C2CCN(C(=O)c3ccsc3)C2)nc2cccnc21` (centres undefined) the value was 606 s. For `CCOc1ccc(CC(=O)N2CCN(c3ccc(-c4nc(C)cs4)cn3)CC2)cc1` the value was 883 s.

Compound `COCCNC(=O)c1csc(N2CCN(c3ccc(Cl)cc3)CC2)n1` came in with an RP-LC retention time of 972 s. For `CN(CC(=O)N1CCN(c2ccccc2)CC1)S(=O)(=O)c1ccc2c(c1)CCCC(=O)N2` the value was 737 s; for `Cc1ccccc1OCc1nc(-c2ccc3ncn(C(C)C)c3c2)no1`, 839 s; for `O=C(NC1CC1)c1ccc(OCC2CCCN2C(=O)c2c(F)cccc2F)cc1` (centres undefined), 741 s.

As to `Cc1noc(-c2nn(C)c3c2CN(C(=O)Nc2ccc(Cl)cc2)CC3)n1`, the RP-LC retention time was 790 s. For `OCCOCCNCc1ccc(-c2ccccc2F)o1` the value was 616 s. In turn, `Cc1ccc(Cl)cc1NC(=O)Cc1c(C)nn(-c2nc(-c3ccc(F)cc3)cs2)c1C` had an RP-LC retention time of 1250 s. For `O=C(c1ccoc1)N1CCC2(CCCCO2)CC1` the value was 639 s; for `CCCC(NC(=O)c1cc(OC)c(OC)c(OC)c1)C(=O)Nc1nc2ccccc2[nH]1` (centres undefined), 688 s.

Take `CC(C)[C@@H]1NC(=O)[C@H](Cc2ccccc2)NC(=O)[C@@H](CC(=O)O)NC(=O)CNC(=O)[C@H](CCCN=C(N)N)NC1=O`: the RP-LC retention time was determined as 624 s. For `COCCn1nnnc1C1CC2(CCOCC2)C(=O)N1Cc1ccc(Cl)cc1` (centres undefined) the value was 904 s; for `CCOc1nc2c(c(C)nn2-c2cccc(C)c2)c(C)c1CCC(=O)N1CCN(c2ccccn2)CC1`, 910 s; for `COc1ccc(N2CC(c3nc(-c4ccccc4Cl)no3)CC2=O)cc1` (centres undefined), 926 s. For `COc1ccc(S(=O)(=O)N2CCC(n3cnc4c(C)cccc4c3=O)CC2)cc1OC` the value was 881 s; for `CCc1cccc(NC(=O)N2C[C@@H](F)C[C@H]2C(=O)N2CCc3ccccc3C2)c1`, 887 s; for `CCCn1c(=O)c(-c2ccc(C(=O)NC(C)C)cc2)nc2cccnc21`, 894 s.

`CCC(NC(=O)c1ccc2c(c1)nc1n2CCN(Cc2ccccc2)C1=O)c1cccs1` (centres undefined) yielded an RP-LC retention time of 836 s. For `COc1ccc(CC(=O)N2CCCC2c2nc(-c3ccccc3OC)no2)cc1` (centres undefined) the value was 853 s; for `Cc1cc(C2CCCN2C(=O)CCc2ccccc2)no1` (centres undefined), 760 s; for `CCCCOc1ccc(CNC(=O)C2CCCN(C(=O)c3[nH]c(C)c(C(=O)OC)c3C)C2)cc1` (centres undefined), 930 s.

In turn, `Cc1nc2cc(-c3noc(CCc4c[nH]c5ccccc45)n3)ccc2o1` gave an RP-LC retention time of 1020 s. Take `Cc1cc2nn(CC(=O)N(C)c3ccccc3)c(=O)n2c(Nc2ccccc2C)n1`: the RP-LC retention time amounted to 922 s.

Regarding `CC(CNC(=O)C1CCN(C(=O)c2ncn3c2COC(c2ccccc2)C3)CC1)c1ccccc1` (centres undefined), the RP-LC retention time was found to be 826 s.

Compound `O=C(Nc1nc(-c2ccc(-c3ccccc3)cc2)cs1)C1CCCC1` came in with an RP-LC retention time of 1260 s. For `CCOc1ccccc1N1CCN(S(=O)(=O)c2nn(CC)cc2C(=O)NCCC(C)C)CC1` the value was 1130 s. For `CC(C)(C)NC(=O)c1ccc(-n2cc(CNC(=O)C3CC3)cn2)cc1` the value was 711 s; for `Cc1nc(C)c(-c2nnc(NC(=O)c3ccno3)o2)s1`, 603 s. For `COc1cccc(-c2[nH]ncc2CN2CCC3(CC2)CC(O)CCO3)c1` (centres undefined) the value was 576 s. With `CCCN(CC1CCOC1)S(=O)(=O)c1cc(Cl)ccc1OC` (centres undefined), the RP-LC retention time stood at 939 s. Consider `Fc1ccc(-c2nc(-c3cccc(-c4ccn[nH]4)c3)no2)c(F)c1`, for which the RP-LC retention time is 992 s. Turning to `Cc1cc(C)n2c(Nc3cccc(C(F)(F)F)c3)c(-c3ccc(O)cc3)nc2n1`, the RP-LC retention time came to 697 s. For `CN(CCc1noc(-c2ccc(C(=O)N3CCOCC3)cc2)n1)C(=O)Cc1ccc(Cl)cc1` the value was 757 s; for `Cn1cc(C(=O)NC2CCCCC2)c2nn(-c3ccccc3)c(=O)c-2c1`, 678 s; for `COc1ccccc1NC(=O)Cn1nc2c(Oc3cc(C)cc(C)c3)nccn2c1=O`, 957 s. For `Cc1ccc(NC(=O)N2CCC(OC3CCN(S(C)(=O)=O)CC3)CC2)cc1` the value was 738 s; for `CN1C(=O)C(CC(=O)NC2CCCC2)Sc2ncccc21` (centres undefined), 668 s; for `Cn1nnnc1SCCNCc1ccc(Cl)cc1Cl`, 596 s.

Turning to `Cc1ccc(-n2ccnc(NC(=O)Nc3cccc(F)c3)c2=O)cc1C`, the RP-LC retention time stood at 1070 s. For `Cc1ccc(Nc2c(-c3ccc(C(=O)O)cc3)nc3cnccn23)c(Br)c1` the value was 1080 s; for `CS(=O)(=O)c1nc2ccc(NS(=O)(=O)c3ccc4c(c3)OCCO4)cc2s1`, 792 s.

As for `O=C(c1cc(F)ccc1F)N1CCN(c2cc(-c3ccc(F)cc3)[nH]n2)CC1`, the RP-LC retention time is 807 s. For `O=C(NCc1ccccn1)c1nnn(Cc2ccccc2Cl)c1-n1cccc1` the value was 712 s. For `Cc1ccc(NC(=O)Nc2ccccc2C(N)=O)cc1` the value was 815 s. For `O=C(Cn1nc2c3cc(Cl)ccc3ncn2c1=O)Nc1ccccc1` the value was 718 s; for `O=C(Cc1csc2nc(-c3cccc(Br)c3)cn12)N1CCN(c2ccccc2)CC1`, 1010 s; for `O=C(CN1C(=O)C2CCCCN2c2ccc(S(=O)(=O)N3CCCC3)cc21)N1CCCCC1` (centres undefined), 872 s. The compound `Cc1ccc(Cn2c(N3CCCC(C(=O)NCc4ccccc4)C3)nc3ccsc3c2=O)cc1` (centres undefined) came in with an RP-LC retention time of 958 s.

`Cc1cccc(OCc2nc(-c3ccc4c(c3)nnn4CCC(=O)N3CCCC3)no2)c1`: the RP-LC retention time was 923 s. For `Cc1nc(CSCC(=O)Nc2ccc(Cl)cc2)cs1` the value was 778 s.

(Values after the METLIN SMRT retention time set (Domingo-Almenara et al. 2019).)
